Source: PubChem BioAssay (NCI)
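Growth conditions: 96-well plates. Treatment: test compound, 48 hours, 5 concentrations. Analysis: linear interpolation between bracketing concentrations; unreached endpoints set to highest concentration. The concentration for 50% growth inhibition is given as GI50. TGI is the concentration that stops growth completely.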

What was measured:
Experiment in all cases: NCI-60 cell line screen, 48 h
MALME-3M melanoma = tested on: MALME-3M melanoma
A498 renal = tested on: A498 renal
NCI-H460 lung = tested on: NCI-H460 lung
ACHN renal = tested on: ACHN renal
HCT-116 colon = tested on: HCT-116 colon
MOLT-4 leukemia = tested on: MOLT-4 leukemia
UO-31 renal = tested on: UO-31 renal
SF-539 CNS = tested on: SF-539 CNS
CCRF-CEM leukemia = tested on: CCRF-CEM leukemia
M14 melanoma = tested on: M14 melanoma
SNB-19 CNS = tested on: SNB-19 CNS
HT29 colon = tested on: HT29 colon
MDA-MB-435 = tested on: MDA-MB-435
SF-268 CNS = tested on: SF-268 CNS
SW-620 colon = tested on: SW-620 colon
DU-145 prostate = tested on: DU-145 prostate
SNB-75 CNS = tested on: SNB-75 CNS
K-562 leukemia = tested on: K-562 leukemia
786-0 renal = tested on: 786-0 renal
OVCAR-5 ovarian = tested on: OVCAR-5 ovarian
T-47D breast = tested on: T-47D breast
CAKI-1 renal = tested on: CAKI-1 renal
UACC-62 melanoma = tested on: UACC-62 melanoma
U251 CNS = tested on: U251 CNS
NCI-H522 lung = tested on: NCI-H522 lung
MDA-MB-231 breast = tested on: MDA-MB-231 breast
PC-3 prostate = tested on: PC-3 prostate
SK-MEL-28 melanoma = tested on: SK-MEL-28 melanoma
HCC-2998 colon = tested on: HCC-2998 colon

O=C(N/N=C/c1ccc(Cl)s1)c1[nH]c2ccc(Br)cc2c1-c1ccccc1
TGI (MALME-3M melanoma): > 74400 nM
GI50 (A498 renal): 28300 nM
TGI (A498 renal): > 100000 nM
GI50 (NCI-H460 lung): 335 nM
TGI (NCI-H460 lung): 3270 nM
GI50 (ACHN renal): 361 nM
TGI (ACHN renal): > 61500 nM
GI50 (HCT-116 colon): 231 nM
TGI (HCT-116 colon): 7060 nM
GI50 (MOLT-4 leukemia): 330 nM
TGI (MOLT-4 leukemia): > 21400 nM
GI50 (UO-31 renal): 520 nM
TGI (UO-31 renal): > 100000 nM
GI50 (SF-539 CNS): 122 nM
TGI (SF-539 CNS): 429 nM
GI50 (CCRF-CEM leukemia): 354 nM
TGI (CCRF-CEM leukemia): > 86400 nM
GI50 (M14 melanoma): 318 nM
TGI (M14 melanoma): > 100000 nM
GI50 (SNB-19 CNS): 331 nM
TGI (SNB-19 CNS): > 90200 nM
GI50 (HT29 colon): 319 nM
TGI (HT29 colon): 10700 nM
GI50 (MDA-MB-435): 196 nM
TGI (MDA-MB-435): 384 nM
GI50 (SF-268 CNS): 574 nM
TGI (SF-268 CNS): > 100000 nM
GI50 (SW-620 colon): 375 nM
TGI (SW-620 colon): > 100000 nM
GI50 (DU-145 prostate): 346 nM
TGI (DU-145 prostate): 34100 nM
GI50 (SNB-75 CNS): 259 nM
TGI (SNB-75 CNS): 3450 nM
GI50 (K-562 leukemia): 235 nM
TGI (K-562 leukemia): > 73800 nM
GI50 (786-0 renal): 418 nM
TGI (786-0 renal): > 41500 nM
GI50 (OVCAR-5 ovarian): 424 nM
TGI (OVCAR-5 ovarian): > 100000 nM
GI50 (T-47D breast): 2310 nM
TGI (T-47D breast): > 86800 nM
GI50 (CAKI-1 renal): 450 nM
TGI (CAKI-1 renal): 47000 nM
GI50 (UACC-62 melanoma): 334 nM
TGI (UACC-62 melanoma): 25900 nM
GI50 (U251 CNS): 322 nM
TGI (U251 CNS): 18200 nM
GI50 (NCI-H522 lung): 71.9 nM
TGI (NCI-H522 lung): 242 nM
GI50 (MDA-MB-231 breast): 290 nM
TGI (MDA-MB-231 breast): 3090 nM
GI50 (PC-3 prostate): 450 nM
TGI (PC-3 prostate): > 100000 nM
GI50 (SK-MEL-28 melanoma): 627 nM
TGI (SK-MEL-28 melanoma): > 100000 nM
GI50 (HCC-2998 colon): 453 nM
TGI (HCC-2998 colon): 46000 nM
